These results are taken from article PMC7901654, “Bioisosteric Discovery of NPA101.3, a Second-Generation RET/VEGFR2 Inhibitor Optimized for Single-Agent Polypharmacology” (Journal of Medicinal Chemistry, 2020).

Structures are written as SMILES.

Assay [1] has as its system RET/M918T, RET/A883F, and RET/V804L/M. Nature of the assay: RET phosphorylation Western blot in RAT1 cells, other point mutants. Type of assay: cell-based. The settings on record: 2 h. As to the method: (§1) Fibroblasts transfected with RET/C634R were treated with increasing doses of NPA101.3, ranging from 0.1 to 10.0 nM. RET autophosphorylation was assessed by Western blotting using two different antibodies that can recognize phosphorylated Y905, located in the RET kinase activation loop, or Y1062, a multidocking site involved in RET downstream signaling.[41]
(§2) Figure 4 NPA101.3-mediated inhibition of phosphorylation and signaling of oncogenic RET mutants and VEGFR2 in intact cells. Serum-starved RAT1 cells exogenously expressing the (A and B) indicated RET point mutants or (C) NIH3T3 cells exogenously expressing the indicated RET rearranged mutants were treated for 2 h with the indicated concentrations of the compound. Total cell lysates (50 μg) were subjected to immunoblotting with anti-phospho-Y1062 (αp1062) and anti-phospho-Y905 (αp905) RET antibodies. The blots were normalized using the anti-RET (αRET) antibody. (D) HEK293 cells were transiently transfected with human VEGFR2; 36 h after transfection, cells were serum starved for 12 h. The indicated doses of the compound or vehicle (NT) were added for 2 h, and then VEGFA (100 ng/mL) stimulation was applied for 15 min. […]
(§3) Protein lysates were prepared according to standard procedures. […] Immune complexes were detected with the enhanced chemiluminescence kit (Amersham Pharmacia Biotech, Little Chalfont, U.K.). […]

The target in assay [2] is T1, PAK1 (Homo sapiens, UniProt Q13153).
T1 construct: purchased DiscoveRx KINOMEscan (TRKA and CSF1R IC50 enzymes from Invitrogen)
T1 sequence (Q13153 whole entry): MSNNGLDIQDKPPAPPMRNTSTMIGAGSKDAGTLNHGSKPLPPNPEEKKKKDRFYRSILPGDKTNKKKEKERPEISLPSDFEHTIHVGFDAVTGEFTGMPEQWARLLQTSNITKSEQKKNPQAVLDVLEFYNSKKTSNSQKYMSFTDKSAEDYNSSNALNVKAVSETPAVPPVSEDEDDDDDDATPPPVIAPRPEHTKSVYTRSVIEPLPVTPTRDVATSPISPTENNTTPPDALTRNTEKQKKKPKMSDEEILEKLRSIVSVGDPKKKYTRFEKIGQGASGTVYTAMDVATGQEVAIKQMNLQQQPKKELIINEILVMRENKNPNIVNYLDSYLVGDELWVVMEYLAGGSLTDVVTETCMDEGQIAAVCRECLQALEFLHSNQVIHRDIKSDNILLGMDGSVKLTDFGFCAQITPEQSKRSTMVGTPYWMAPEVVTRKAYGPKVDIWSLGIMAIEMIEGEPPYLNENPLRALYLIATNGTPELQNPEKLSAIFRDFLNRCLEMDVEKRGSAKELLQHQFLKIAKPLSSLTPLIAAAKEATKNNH
Nature of the assay: KinomeScan panel screen. The class given is binding. The following applies: PAK1, 100 nM; read-out: Percent Control. How it is done: In addition, NPA101.3, at a concentration of 100 nM, was subjected to a kinome scan against a 96-kinase panel representing major kinome clusters (Table S2). The compound featured good selectivity, displaying strong binding activity (>90% bound) for only seven additional kinases [CSF1R (colony stimulating factor 1 receptor), FRK (fyn-related Src family tyrosine kinase), HCK (HCK proto-oncogene, Src family tyrosine kinase), LYN (lyn proto-oncogene, Src family tyrosine kinase), MKNK2 (MAPK-interacting serine/threonine kinase 2), TRKA (neurotrophic receptor tyrosine kinase 1), and TRKC (neurotrophic receptor tyrosine kinase 3)] and weak binding (>10–35% bound) for six other kinases (Table S2 and Figure S2). It is important to note that the measurement of binding affinity, which is based on control ligand displacement (Kd), is more sensitive than the in vitro kinase assay. Among the seven kinases with >90% binding, TRKA and CSF1R were selected for an in vitro kinase assay.
Supplementary Table S2: NPA101.3 KinomeScan Panel screen.
NPA101.3 was screened at a single concentration of 100 nM. Hits values lower than
10% of control were considered strongly positive.
DiscoveRx Gene Entrez Gene Percent Compound
Symbol Symbol Control Concentration

The subject of assay [3] is NIH3T3 HRAS/G12V cells. Description: Cell growth curves, transformed NIH3T3. Type of assay: cell-based. The settings on record: up to 100.0 nM. As to the method:
Nthy-ory-3-1 (10000 per well), TPC-1 (10000 per well), MZ-CRC-1 (100000 per well), TT (200000 per well), Lc-2/ad (100000 per well), BCPAP (10000 per well), 8505-C (10000 per well), PC-9 (10000 per well), A549 (10000 per well), CALU-1 (10000 per well), NIH3T3 RET/C634Y (10000 per well), and NIH3T3 HRAS/G12V (10000 per well) were seeded in six-well tissue culture plates. Cells were kept in 2% (TPC-1), 5% (Nthy-ori-3-1), or 10% (BCPAP, 8505-C, CALU-1, A549, PC-9, TT, MZ-CRC-1, and Lc-2/ad) fetal calf serum or in 2% (NIH3T3 RET/C634Y and HRAS/G12V) calf serum. Ba/F3 cells (200000 per well in 2 mL) were seeded in six-well tissue culture plates and kept in 10% fetal calf serum. The day after plating, different concentrations of the drug or vehicle were added to the medium and changed every 2–3 days. Cells were counted every day (Ba/F3), every 2 days (fibroblasts), or every 2–3 days (human cell lines). […] IC50 doses were calculated through a curve fitting analysis from last day of growth curves using the PRISM software program (Graphpad Software Inc.).
Supplementary Figure S9: NPA101.3-mediated inhibition of proliferation of RET-transformed NIH3T3 cells […] Serum-starved NIH3T3 cells exogenously expressing the RET/C634Y or HRAS/G12V oncogenes were incubated with vehicle (NT: not treated) or the indicated concentrations of the compound and counted at the indicated time points. […]

For assay [4], the target named is T2, RET/C634R (Homo sapiens, UniProt P07949, C634R).
T2 construct: expressed in transfected cells; host or cells: RAT1 fibroblasts (gift of M. Billaud)
T2 sequence (P07949 29-1072 isoform P07949-2 C634R limits assumed): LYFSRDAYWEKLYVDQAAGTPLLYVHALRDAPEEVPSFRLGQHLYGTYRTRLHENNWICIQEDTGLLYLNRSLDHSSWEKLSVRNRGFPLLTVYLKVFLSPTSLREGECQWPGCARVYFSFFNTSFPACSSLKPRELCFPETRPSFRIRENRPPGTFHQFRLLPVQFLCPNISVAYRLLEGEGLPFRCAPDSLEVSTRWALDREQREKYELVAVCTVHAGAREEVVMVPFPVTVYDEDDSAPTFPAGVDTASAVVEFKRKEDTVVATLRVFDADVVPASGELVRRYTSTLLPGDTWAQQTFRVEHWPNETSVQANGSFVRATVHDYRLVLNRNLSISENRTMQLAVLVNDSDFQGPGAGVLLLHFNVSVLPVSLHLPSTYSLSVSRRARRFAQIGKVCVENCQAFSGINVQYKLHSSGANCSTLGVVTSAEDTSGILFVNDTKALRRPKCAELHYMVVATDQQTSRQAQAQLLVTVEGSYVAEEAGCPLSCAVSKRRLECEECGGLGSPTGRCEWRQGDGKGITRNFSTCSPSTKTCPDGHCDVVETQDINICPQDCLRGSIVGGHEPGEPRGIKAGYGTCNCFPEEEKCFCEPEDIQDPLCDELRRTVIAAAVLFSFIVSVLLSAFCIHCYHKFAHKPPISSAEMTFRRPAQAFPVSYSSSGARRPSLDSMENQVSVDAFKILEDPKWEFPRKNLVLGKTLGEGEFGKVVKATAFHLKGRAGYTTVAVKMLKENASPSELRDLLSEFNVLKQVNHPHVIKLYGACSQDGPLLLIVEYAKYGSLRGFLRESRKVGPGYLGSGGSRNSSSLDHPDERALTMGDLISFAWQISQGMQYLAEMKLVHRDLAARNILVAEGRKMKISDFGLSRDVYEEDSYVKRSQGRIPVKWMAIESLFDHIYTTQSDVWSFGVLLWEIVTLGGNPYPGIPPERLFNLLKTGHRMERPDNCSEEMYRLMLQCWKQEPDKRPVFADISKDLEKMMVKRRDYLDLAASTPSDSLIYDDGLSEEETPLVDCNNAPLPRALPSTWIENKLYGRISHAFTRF
Nature of the assay: RET autophosphorylation (Y905, Y1062) Western blot in transfected fibroblasts (RAT1). The class given is cell-based. The settings on record: 2 h. How it is done:
as §1, §2, §3

With `CC(C)(C)c1cc(NC(=O)Cc2ccc(-n3cnc4cc(-c5ccc(S(C)(=O)=O)cc5)ccc43)cc2)no1` [NPA101.3], in assay [1], the “phosphorylation of other MTC-associated RET oncogenic point mutants” value is “inhibited”. In addition, the remaining binding at 0.1 µM in assay [2] was found to be 100%. In addition, the “effect on proliferation of NIH3T3 HRAS/G12V cells” value in assay [3] is recorded as “virtually no effect”. In addition, the “RET phosphorylation (Y905, Y1062)” value is given as “started to be inhibited” in assay [4] (0.3 nM) and “almost completely blocked” in assay [4] (3.0 nM).
